# According to patent publication US20220170028A1, “NOVEL INTERLEUKIN-2 VARIANTS AND BIFUNCTIONAL FUSION MOLECULES THEREOF” (Cugene Inc, priority 2019, published 2022):
# Assays:
# [1] = test system: STAT5 phosphorylation in CD4+ Tconv cells; assay: STAT5 phosphorylation in CD4+ Tconv cells, human PBMC assay by FACS; format: cell-based
# Procedure, shortened: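 Donor PBMCs were starved in serum-free buffer at 4° C for 1 h, then 2×10^5 cells were exposed to serial dilutions of IL-2 variants for 30 min at 37° C. After fixation and permeabilization they were stained for CD4, CD25, FOXP3 and pSTAT5. Read-out is percent pSTAT5+ cells among CD4+/Foxp3+/CD25^high (Treg) or CD4+/Foxp3−/CD25^low (Tconv) cells by flow cytometry.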
# [2] = test system: STAT5 phosphorylation in NK cells; assay: STAT5 phosphorylation in CD56+ NK cells, human PBMC; format: cell-based
# Text: The Stat5 phosphorylation activity on other responder cells than CD4+ T cell subsets, including CD8+T and NK, by P-0511 was compared to P-0531, the S125I equivalent of wild-type P-0250. […] IL-2 receptors expressed on CD4+ Tconv, CD8+T and NK cells are primarily dimeric IL-2Rs, comprising IL-2R6 and γc.
# IL-2Rβ and γc complex = biological target: T1, IL-2Rβ and γc complex (Homo sapiens, UniProt P14784+P31785); assay: ELISA binding to IL-2Rβ and γc complex
# T1 construct: IL-2R6-ECD (NP_000869); γc-ECD (NP_000197)
# T1 sequence (P14784 27-240 limits assumed): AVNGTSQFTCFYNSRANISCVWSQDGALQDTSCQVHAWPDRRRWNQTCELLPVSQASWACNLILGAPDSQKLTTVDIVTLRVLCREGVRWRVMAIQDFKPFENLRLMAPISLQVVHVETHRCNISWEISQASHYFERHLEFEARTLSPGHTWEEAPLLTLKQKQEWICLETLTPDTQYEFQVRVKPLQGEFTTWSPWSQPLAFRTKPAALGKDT
# T1 sequence (P31785 23-262 limits assumed): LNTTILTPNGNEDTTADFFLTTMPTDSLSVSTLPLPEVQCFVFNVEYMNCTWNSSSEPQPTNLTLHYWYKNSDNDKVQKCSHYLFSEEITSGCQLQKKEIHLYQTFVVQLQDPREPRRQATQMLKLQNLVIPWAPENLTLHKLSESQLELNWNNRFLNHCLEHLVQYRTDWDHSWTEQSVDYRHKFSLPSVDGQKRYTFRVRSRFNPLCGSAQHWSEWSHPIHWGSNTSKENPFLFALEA
# Experimental: Briefly, non-covalent complex of IL-2R6-ECD (NP_000869) and γc-ECD (NP_000197) through heterodimeric Fc chains was coated onto the wells of Nunc Maxisorp 96-well microplates at 2 μg/well. After overnight incubation at 4° C. and blocking with superblock (ThermoFisher), 3-fold serial dilutions of IL-2 Fc fusion proteins starting at either 100 or 270 nM were added to each well at 100 Following a one-hour incubation at room temperature, biotin mouse anti-human IL-2 Ab (BD BioSciences) at 1 μg/ml was added to each well followed by incubation with HRP-Avidin (ThermoFisher) at 1 μg/ml for 1 hour. Wells were thoroughly aspirated and washed three times with PBS/0.05% Tween-20 following each step. Finally, 100 TMB substrate was added to each well; the plate was developed at room temperature in the dark for 10 minutes, and 100 of stop solution (2N Sulfuric acid, Ricca Chemical) was added. Absorbance was determined at 450 nm; curves were fit using Prism software (Graph Pad) and illustrated in FIG. 11E.
# [3] = test system: CD4+ Tconv cells, CD8 T cells and NK cells; assay: Effector T cell and NK cell proliferation and expansion in mice after a single subcutaneous injection (Example 9); format: in vivo, mouse; conditions: 0.3 mg/kg single s.c., C57/BL6 mice
# Experimental: IL-2 variant Fc fusion proteins were administered to mice and their ability to preferentially proliferate and expand regulatory T cells (CD4+CD25+FoxP3+ T cells) over effector T cells and NK cells were determined in vivo.
# Female C57/BL6 mice (7-week old) were received from Charles River Laboratory and acclimated in house for at least 7 days before the study. Vehicle (PBS), 0.3 mg/kg of each test compounds, or IL-2 benchmark compounds were subcutaneously administered to mice on day 0. Peripheral blood samples were collected into heparin-treated tubes on days 3, 5 and 7 post-treatment. Each group contained 6 mice and baseline blood was collected 2 days prior to the treatment (day −2). After red blood cell lysis, total viable mononuclear blood cells were counted by trypan blue dead cell exclusion method and proceeded to intracellular staining for immune cell phenotype and Ki67 proliferation markers using flow cytometric analysis. Cells were stained separately with two panels of antibodies as listed: 1) anti-mouse Foxp3-FITC, Ki67-PE, anti-mouse CD25-APC and anti-mouse CD4-Percpcy5.5 (1:50 dilution) for CD4+T-regulatory cells (Treg); 2) anti-mouse CD3-FITC, Ki67-PE, anti-mouse CD335-APC and anti-mouse CD8-Percpcy5.5 (1:50 dilution) for CD8+T and NK cells.
substance,measurement,setting,value
"P-0511: IL-2 L19H/S125I/Q126E Fc fusion, SEQ ID NO: 213",STAT5 phosphorylation activity in CD4+ Tconv cells (in words),[1],nearly completely abolished
same,STAT5 phosphorylation activity in NK cells (in words),[2],nearly completely abolished
same,"binding to IL-2 dimeric receptor complex, EC50",IL-2Rβ and γc complex,did not show appreciable binding
same,Ki67 stimulation on CD8 T cells and NK cells in vivo (in words),[3],mild Ki67 stimulation
same,"expansion of CD4+ Tconv cells, CD8 T cells or NK cells in vivo",[3],No significant expansion
